Laboratory results as given in PubChem BioAssay (NCI).
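How tested: cells in 96-well plates exposed to compound for 48 hours at five concentrations. The concentration for full growth arrest is given as TGI.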

Key:
Assay in all cases: inhibition of tumour cell growth, NCI panel, 48 h
IGROV1 ovarian = tested on: IGROV1 ovarian
UACC-62 melanoma = tested on: UACC-62 melanoma
PC-3 prostate = tested on: PC-3 prostate
TK-10 renal = tested on: TK-10 renal
SF-268 CNS = tested on: SF-268 CNS
EKVX NSCLC = tested on: EKVX NSCLC
NCI/ADR-RES ovarian = tested on: NCI/ADR-RES ovarian
OVCAR-5 ovarian = tested on: OVCAR-5 ovarian
MDA-MB-435 = tested on: MDA-MB-435
UACC-257 melanoma = tested on: UACC-257 melanoma
SW-620 colon = tested on: SW-620 colon
OVCAR-3 ovarian = tested on: OVCAR-3 ovarian
COLO 205 colon = tested on: COLO 205 colon
CCRF-CEM leukemia = tested on: CCRF-CEM leukemia
SNB-19 CNS = tested on: SNB-19 CNS
HCT-116 colon = tested on: HCT-116 colon
SK-MEL-28 melanoma = tested on: SK-MEL-28 melanoma
NCI-H226 lung = tested on: NCI-H226 lung
NCI-H460 lung = tested on: NCI-H460 lung

SMILES | TGI (IGROV1 ovarian) [µM] | TGI (UACC-62 melanoma) [µM] | TGI (PC-3 prostate) [µM] | TGI (TK-10 renal) [µM] | TGI (SF-268 CNS) [µM] | TGI (EKVX NSCLC) [µM] | TGI (NCI/ADR-RES ovarian) [µM] | TGI (OVCAR-5 ovarian) [µM] | TGI (MDA-MB-435) [µM] | TGI (UACC-257 melanoma) [µM] | TGI (SW-620 colon) [µM] | TGI (OVCAR-3 ovarian) [µM] | TGI (COLO 205 colon) [µM] | TGI (CCRF-CEM leukemia) [µM] | TGI (SNB-19 CNS) [µM] | TGI (HCT-116 colon) [µM] | TGI (SK-MEL-28 melanoma) [µM] | TGI (NCI-H226 lung) [µM] | TGI (NCI-H460 lung) [µM]
CN1C/C(=C\c2cccs2)C2=NN(C)C(c3cccs3)C2C1 (stereo unspecified) | > 100 | > 100 | > 100 | > 100 | > 100 | > 100 | > 100 | > 100 | > 100 | > 100 | > 100 | > 100 | > 100 | > 100 | > 100 | > 100 | > 100 | > 100 | > 100
Cc1cc(C)c(S(=O)(=O)N2CCCN(S(=O)(=O)c3c(C)cc(C)cc3C)OCCCO2)c(C)c1 | > 100 | > 100 | > 100 | > 100 | > 100 | > 100 | > 100 | > 100 | > 100 | > 100 | > 100 | > 100 | > 100 | > 100 | > 100 | > 100 | > 100 | > 100 | > 100
O=C(N/N=C/c1c(-c2ccccc2)no[n+]1[O-])N1CCOCC1 | > 100 | > 100 | > 100 | > 100 | > 100 | > 100 | > 100 | > 100 | > 100 | > 100 | > 100 | > 100 | > 100 | > 100 | > 100 | > 100 | > 100 | > 100 | > 100
c1ccc(N=C(Nc2ccccc2)N2CCCC2)cc1 | > 100 | > 100 | > 100 | > 100 | > 100 | > 100 | > 100 | > 100 | > 100 | > 100 | > 100 | > 100 | > 100 | > 100 | > 100 | > 100 | > 100 | > 100 | > 100
Cc1ccc(N2C(=O)C=C(C3=C(O)C(=O)N(c4ccc(C)cc4)C3=O)C2=O)cc1 | > 100 | > 100 | > 100 | > 100 | > 100 | > 100 | > 100 | > 100 | > 100 | > 100 | > 100 | > 100 | > 100 | > 100 | > 100 | > 100 | > 100 | > 100 | > 100
CCCCCCc1ccc(C(=O)NO)cc1 | > 100 | 66.6 | > 100 | > 100 | > 100 | > 100 | 51.9 | > 100 | > 100 | > 100 | > 100 | > 100 | > 100 | 52.8 | > 100 | > 100 | > 100 | > 100 | 72.3
N#Cc1c(=O)c2ccccc2n2c1[nH]c1ccccc12 | > 100 | > 100 | > 100 | > 100 | > 100 | > 100 | 70.4 | > 100 | > 100 | > 100 | > 100 | > 100 | > 100 | 79.6 | > 100 | > 100 | > 100 | > 100 | > 100
CN(C)CCCn1c(Cc2ccc(Cl)cc2)nc2cc(C(F)(F)F)ccc21 | 27.3 | 31.2 | 29 | 29.6 | 29.1 | 32.7 | 33.6 | 32.5 | 26.6 | 30.1 | > 57.8 | 27.6 | 29.3 | > 43.7 | 30.8 | 25 | 33.5 | 36.4 | 26
CCO/C=N\c1c(C#N)c(-c2ccc(Cl)cc2)cn1-c1ccc(C)cc1 | > 100 | > 100 | > 100 | > 100 | > 100 | > 100 | > 100 | > 100 | > 100 | > 100 | > 100 | > 100 | > 100 | > 100 | > 100 | > 100 | > 100 | > 100 | > 100
Cc1c(S(=O)(=O)O)ccc(N=Nc2c(O)c(C(=O)O)cc3ccccc23)c1Cl | > 100 | > 100 | > 100 | > 100 | > 100 | > 100 | > 100 | > 100 | > 100 | > 100 | > 100 | > 100 | > 100 | > 100 | > 100 | > 100 | > 100 | > 100 | > 100
O=c1[nH]/c(=C/c2ccc(OCc3ccccc3)cn2)c(=O)[nH]/c1=C/c1ccc(F)cc1 | 13.1 | > 50.2 | > 45.4 | > 39.7 | > 40.7 | > 93.6 | > 37 | > 100 | 0.687 | 58.4 | > 44.6 | 1.42 | 6.75 | > 44.7 | > 34.2 | > 100 | > 100 | > 44.3 | > 34.2
COC(=O)c1ccccc1C1CN=NC12Cc1ccccc1C2=O (stereo unspecified) | > 100 | > 100 | > 100 | > 100 | > 100 | > 100 | > 100 | > 100 | > 100 | > 100 | > 100 | > 100 | > 100 | > 100 | > 100 | > 100 | > 100 | > 100 | > 100
C=C1C(=O)O[C@@H]2[C@@H]3O[C@@H](C[C@@H]13)[C@](C)(O)CC/C=C(\C)CCC[C@@H]2C | 22.6 | 25.4 | 22.9 | 27.7 | 43.9 | 32 | 38.5 | 48 | 24.9 | 27 | 38.4 | 25.8 | 31.5 | 34.8 | 29.8 | 21.2 | 33.3 | 36.1 | 30.8
CC1(C)CC2=C(Sc3ccccc3N2)C(=O)C1C(=O)C(=O)Nc1cccc([N+](=O)[O-])c1 (stereo unspecified) | > 100 | > 100 | > 100 | > 100 | > 100 | > 100 | > 100 | > 100 | > 100 | > 100 | > 100 | > 100 | > 100 | > 100 | > 100 | > 100 | > 100 | > 100 | > 100
CC1(C)CCc2c(c(N=Nc3ccc(S(N)(=O)=O)cc3)c3ccccc3c2O)O1 | 40.1 | 34.3 | 36.1 | 38 | 84.9 | 57.1 | 59.9 | 38.2 | 22.5 | 21.3 | > 100 | 32.1 | 44.9 | 24.3 | 39 | 34.7 | 72.9 | 57.5 | 24.3
N#CC(C#N)=C/C=C(\Sc1c(Cl)c(Cl)nc(Cl)c1Cl)c1ccc(Cl)cc1 | 53.6 | 30 | > 100 | 41.2 | 54.1 | > 100 | 36.1 | 44.6 | 20.3 | 37.2 | 25.9 | 27.3 | 55.4 | > 100 | 43 | 34.8 | 49.7 | 67.9 | > 100
CC1C/C(=C\c2ccc(OC(=O)C(C)(C)C)cc2)C(=O)/C(=C/c2ccc(OC(=O)C(C)(C)C)cc2)C1 (stereo unspecified) | 63.3 | > 100 | > 100 | > 100 | > 100 | > 100 | > 100 | > 100 | > 100 | > 100 | > 100 | > 100 | > 100 | 6.25 | > 100 | > 100 | > 100 | 71 | > 100
CCOC(=O)CCC(NC(=O)c1ccc(Oc2nc3ccccc3nc2-c2ccccc2)cc1)C(=O)OCC (stereo unspecified) | > 100 | > 100 | > 100 | > 56.8 | 28.2 | > 100 | 27.7 | > 100 | > 100 | > 100 | > 100 | > 64.8 | > 100 | > 100 | > 77 | > 49.3 | > 100 | 33 | > 100
O=C(c1c(F)c(F)c(F)c(F)c1F)N1CCN(C(=O)c2c(F)c(F)c(F)c(F)c2F)C1=S | 8.96 | 9.33 | 21 | 27 | 32.6 | 32.9 | 32.1 | 29.4 | 11.9 | 22 | 3.59 | 12 | 18.6 | > 100 | 30.1 | 7.72 | 14.9 | 30.8 | 25.6
